Results on 39 molecules are retold here after patent US8853420B2, “Compounds” (Boehringer Ingelheim International GmbH, priority 2008, dated 2014).

SMILES strings stand for the structures.

The target in this assay is T1, Xenopus laevis Aurora B/INCENP complex (Xenopus laevis, UniProt Q6DE08).
T1 construct: equipped at the N-terminal position with a GST tag (amino acids 60-361); GST (N, cleaved yes); made in house; host or cells: E. coli BL21 (DE3)
T1 sequence (Q6DE08 60-361): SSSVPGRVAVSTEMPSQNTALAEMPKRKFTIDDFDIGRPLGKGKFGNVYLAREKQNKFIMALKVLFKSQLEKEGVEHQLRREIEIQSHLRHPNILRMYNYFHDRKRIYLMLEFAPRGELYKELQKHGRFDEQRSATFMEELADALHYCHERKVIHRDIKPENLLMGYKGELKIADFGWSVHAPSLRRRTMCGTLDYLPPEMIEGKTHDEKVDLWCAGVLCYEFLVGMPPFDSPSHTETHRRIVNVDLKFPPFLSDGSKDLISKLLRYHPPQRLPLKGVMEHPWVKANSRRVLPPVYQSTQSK
T1 sequence (O13024 790-847 partner limits assumed): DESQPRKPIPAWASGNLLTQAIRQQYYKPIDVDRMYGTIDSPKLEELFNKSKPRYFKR
The assay is described as follows: Aurora-B kinase assay (radioactive enzyme inhibition assay). The assay is classed as biochemical. The note with it: test substance at 1 μM; percentage of the positive control (maximum value without test substance). From the text:
Example Aurora-B Kinase Assay
A radioactive enzyme inhibition assay was developed using E. coli-expressed recombinant Xenopus laevis Aurora B wild-type protein equipped at the N-terminal position with a GST tag (amino acids 60-361) in a complex with Xenopus laevis INCENP (amino acids 790-847), which is obtained from bacteria and purified. In equivalent manner a Xenopus laevis Aurora B mutant (G96V) in a complex with Xenopus laevis INCENP^790-847 may also be used.
Expression and Purification
The coding sequence for Aurora-B^60-361 from Xenopus laevis is cloned into a modified version of pGEX-6T (Amersham Biotech) via BamHI and SalI cutting sites. The vector contains two cloning cassettes which are separated by a ribosomal binding site, allowing bi-cistronic expression. In this configuration Xenopus laevis Aurora B is expressed by the first cassette, and the Xenopus laevis INCENP^790-847 is expressed by the second cassette. The resulting vector is pAUB-IN^847.
First of all the E. coli strain BL21 (DE3) is co-transformed with pUBS520 helper plasmid and pAUB-IN^847, after which protein expression is induced using 0.3 mM IPTG at an OD600 of 0.45-0.7. The expression is then continued for approx. 12-16 h at 23-25° C. with agitation.
The bacteria are then removed by centrifuging and the pellet is lysed in lysis buffer (50 mM Tris/Cl pH 7.6, 300 mM NaCl, 1 mM DTT, 1 mM EDTA, 5% glycerol, Roche Complete Protease Inhibitor tablets) using ultrasound, using 20-30 mL lysis buffer per liter of E. coli culture. The lysed material is freed from debris by centrifugation (12000 rpm, 45-60 min, JA20 rotor). The supernatant is incubated with 300 μL of equilibrated GST Sepharose Fast Flow (Amersham Biosciences) per liter of E. coli culture for 4-5 h at 4° C. Then the column material is washed with 30 volumes of lysis buffer and then equilibrated with 30 volumes of cleavage buffer (50 mM Tris/Cl pH 7.6, 150 mM NaCl, 1 mM DTT, 1 mM EDTA). To cleave the GST tag from Aurora B, 10 units of Prescission Protease (Amersham Biosciences) are used per milligram of substrate and the mixture is incubated for 16 h at 4° C. The supernatant which contains the cleavage product is loaded onto a 6 mL Resource Q column (Amersham Biosciences) equilibrated with ion exchange buffer (50 mM Tris/Cl pH 7.6, 150 mM NaCl, 1 mM DTT, 1 mM EDTA). The Aurora B/INCENP complex is caught as it flows through, then concentrated and loaded onto a Superdex 200 size exclusion chromatography (SEC) column equilibrated with SEC buffer (10 mM Tris/Cl pH 7.6, 150 mM NaCl, 1 mM DTT, 1 mM EDTA). Fractions which contain the AuroraB/INCENP complex are collected and concentrated using Vivaspin concentrators (molecular weight exclusion 3000-5000 Da) to a final concentration of 12 mg/mL. Aliquots (e.g. 240 ng/μL) for kinase assays are transferred from this stock solution into freezing buffer (50 mM Tris/Cl pH 8.0, 150 mM NaCl, 0.1 mM EDTA, 0.03% Brij-35, 10% glycerol, 1 mM DTT) and stored at −80° C.
Test substances are placed in a polypropylene dish (96 wells, Greiner #655 201), in order to cover a concentration frame of 10 μM-0.0001 μM. The final concentration of DMSO in the assay is 5%. 30 μL of protein mix (50 mM tris/Cl pH 7.5, 25 mM MgCl2, 25 mM NaCl, 167 μM ATP, 10 ng Xenopus laevis Aurora B/INCENP complex in freezing buffer) are pipetted into the 10 μl of test substance provided in 25% DMSO and this is incubated for 15 min at RT. Then 10 μL of peptide mix (100 mM tris/Cl pH 7.5, 50 mM MgCl2, 50 mM NaCl, 5 μM NaF, 5 μM DTT, 1 μCi gamma-P33-ATP [Amersham], 50 μM substrate peptide [biotin-[…] or multimers thereof, or biotin-[…] or multimers thereof, or biotin-[…]]) are added. The reaction is incubated for 75 min (ambient temperature) and stopped by the addition of 180 μL of 6.4% trichloroacetic acid and incubated for 20 min on ice. […]
As a reminder, the remaining activity is the share of the control activity or signal that is left under treatment. For the molecule `CC(C)Nc1ccc(-c2ccc3c(c2)NC(=O)/C3=C(\Nc2ccc(C(=O)N3CCCN(C)CC3)cc2)c2ccccc2)cn1` [Example 120], the remaining activity at 1 µM was found to be 2.75%. The same measure for `CC(C)Nc1ccc(-c2ccc3c(c2)NC(=O)/C3=C(\Nc2ccc(C(=O)N3CCC(N4CCOCC4)CC3)cc2)c2ccccc2)cn1` [Example 121]: 3.31%; for `CC(C)Nc1ccc(-c2ccc3c(c2)NC(=O)/C3=C(\Nc2ccc(C(=O)N3CCC(N4CCCC4)CC3)cc2)c2ccccc2)cn1` [Example 122]: 4%. The same measure for `CC(C)Nc1ccc(-c2ccc3c(c2)NC(=O)/C3=C(\Nc2ccc(C(=O)N3CCN(C(C)C)CC3)cc2)c2ccccc2)cn1` [Example 123]: 2.69%; for `CC(C)Nc1ccc(-c2ccc3c(c2)NC(=O)/C3=C(\Nc2ccc(C(=O)N3C[C@@H](C)N[C@@H](C)C3)cc2)c2ccccc2)cn1` [Example 124]: 3.38%. The same measure for `CC(C)Nc1ccc(-c2ccc3c(c2)NC(=O)/C3=C(\Nc2ccc(C(=O)N3CCN(CC(F)(F)F)CC3)cc2)c2ccccc2)cn1` [Example 125]: 8.83%; for `CC(C)Nc1ccc(-c2ccc3c(c2)NC(=O)/C3=C(\Nc2ccc(C(=O)N3CCN(C4CC4)CC3)cc2)c2ccccc2)cn1` [Example 126]: 5.84%; for `CC(C)Nc1ccc(-c2ccc3c(c2)NC(=O)/C3=C(\Nc2ccc(C(=O)N3CCC[C@H]3CN3CCCC3)cc2)c2ccccc2)cn1` [Example 127]: 4.67%. As for `CC(C)Nc1ccc(-c2ccc3c(c2)NC(=O)/C3=C(\Nc2ccc(C(=O)N3CCC(N(C)C)CC3)cc2)c2ccccc2)cn1` [Example 128], the remaining activity at 1 µM amounted to 4.34%. The same measure for `CC(C)Nc1ccc(-c2ccc3c(c2)NC(=O)/C3=C(\Nc2ccc(C(=O)N3CCN(C4CCOCC4)CC3)cc2)c2ccccc2)cn1` [Example 129]: 4.55%; for `CC(C)Nc1ccc(-c2ccc3c(c2)NC(=O)/C3=C(\Nc2ccc(C(=O)N3CCC[C@@H]3CN3CCCC3)cc2)c2ccccc2)cn1` [Example 130]: 1.43%. The same measure for `CC(C)Nc1ccc(-c2ccc3c(c2)NC(=O)/C3=C(\Nc2ccc(C(=O)N3C[C@H]4C[C@@H]3CN4C)cc2)c2ccccc2)cn1` [Example 131]: 5.48%. For `CC(C)Nc1ccc(-c2ccc3c(c2)NC(=O)/C3=C(\Nc2ccc(C(=O)N3CCN[C@@H](C)C3)cc2)c2ccccc2)cn1` [Example 133] the value was 0.55%; for `CC(C)Nc1ccc(-c2ccc3c(c2)NC(=O)/C3=C(\Nc2ccc(C(=O)NCCN(C)C)cc2)c2ccccc2)cn1` [Example 134], 1.43%; for `CC(C)Nc1ccc(-c2ccc3c(c2)NC(=O)/C3=C(\Nc2ccc(C(=O)N3CCN(C)CC3)cc2)c2ccccc2)cn1` [Example 135], 0.77%. On to `CC(C)Nc1ccc(-c2ccc3c(c2)NC(=O)/C3=C(\Nc2ccc(C(=O)N3CC[C@H](N(C)C)C3)cc2)c2ccccc2)cn1` [Example 136], for which the remaining activity at 1 µM was determined as 0.48%. Consider `CC(C)Nc1ccc(-c2ccc3c(c2)NC(=O)/C3=C(\Nc2ccc(C(=O)N3CC[C@@H](N(C)C)C3)cc2)c2ccccc2)cn1` [Example 137], for which the remaining activity at 1 µM was 0.67%. Regarding `CC(C)Nc1ccc(-c2ccc3c(c2)NC(=O)/C3=C(\Nc2ccc(C(=O)N(C)CCN(C)C)cc2)c2ccccc2)cn1` [Example 138], the remaining activity at 1 µM was determined as 0.68%. The same measure for `CC(C)Nc1ccc(-c2ccc3c(c2)NC(=O)/C3=C(\Nc2ccc(C(=O)N(C)C3CCN(C)CC3)cc2)c2ccccc2)cn1` [Example 139]: 0.88%; for `CC(C)Nc1ccc(-c2ccc3c(c2)NC(=O)/C3=C(\Nc2ccc(C(=O)NC3CCN(C)CC3)cc2)c2ccccc2)cn1` [Example 140]: 2.26%.

As for `CNC(=O)C#Cc1cc2c(cc1S(=O)(=O)c1ccc(F)cc1)/C(=C(/Nc1ccc(CN(C)C)cc1)c1ccccc1)C(=O)N2` [Example 151], the remaining activity at 1 µM was 1.89%. For `CCNC(=O)C#Cc1cc2c(cc1S(=O)(=O)N1CC(F)(F)C1)/C(=C(/Nc1ccc(N3CCN(C)CC3)cc1)c1ccccc1)C(=O)N2` [Example 152] the value was 4.33%; for `CNCC#Cc1cc2c(cc1S(=O)(=O)N1CC(F)(F)C1)/C(=C(/Nc1ccccc1)c1ccccc1)C(=O)N2` [Example 153], 1.2%. For `CN1CCN(c2ccc(N/C(=C3\C(=O)Nc4cc(C#CC(=O)NC5CCC5)c(S(=O)(=O)N5CCC(F)(F)C5)cc43)c3ccccc3)cc2)CC1` [Example 154] the value was 2.62%; for `CN(C)Cc1ccc(N/C(=C2\C(=O)Nc3cc(C#CC(=O)NC4CCC4)c(F)cc32)c2ccccc2)cc1` [Example 155], 8.61%. For `CC(C)NC(=O)C#Cc1cc2c(cc1S(=O)(=O)N1CC(F)(F)C1)/C(=C(/Nc1ccc(N3CCN(C)CC3)cc1)c1ccccc1)C(=O)N2` [Example 156], the remaining activity at 1 µM came to 3.02%.

As to `CNCC#Cc1cc2c(cc1S(=O)(=O)c1ccc(F)cc1)/C(=C(/Nc1ccccc1)c1ccccc1)C(=O)N2` [Example 157], the remaining activity at 1 µM is 1.98%. For the molecule `CNC(=O)C#Cc1cc2c(cc1F)/C(=C(/Nc1ccc(CN(C)C)cc1)c1ccccc1)C(=O)N2` [Example 158], the remaining activity at 1 µM came to 7.53%.

Take `CN(C)Cc1ccc(N/C(=C2\C(=O)Nc3cc(C#CC(=O)NC4CC4)ccc32)c2ccccc2)cc1` [Example 159]: the remaining activity at 1 µM was determined as 2.07%. The same measure for `CCNC(=O)C#Cc1ccc2c(c1)NC(=O)/C2=C(\Nc1ccc(N2CCN(C)CC2)cc1)c1ccccc1` [Example 160]: 1.39%.

Consider `CN(C)Cc1ccc(N/C(=C2\C(=O)Nc3cc(C#CC(=O)Nc4ccccc4)ccc32)c2ccccc2)cc1` [Example 161], for which the remaining activity at 1 µM worked out at 1.69%. The same measure for `CCNC(=O)C#Cc1ccc2c(c1)NC(=O)/C2=C(\Nc1ccc(CN(C)C)cc1)c1ccccc1` [Example 162]: 1.65%; for `CN(C)Cc1ccc(N/C(=C2\C(=O)Nc3cc(C#CC(=O)NC4CCCC4)ccc32)c2ccccc2)cc1` [Example 163]: 2.08%; for `CN1CCN(c2ccc(N/C(=C3\C(=O)Nc4cc(C#CC(=O)NC5CCCC5)ccc43)c3ccccc3)cc2)CC1` [Example 164]: 3.17%. The same measure for `CN(C)Cc1ccc(N/C(=C2\C(=O)Nc3cc(C#CC(=O)NC4CCC4)ccc32)c2ccccc2)cc1` [Example 165]: 2.4%.

Take `CN(C)Cc1ccc(N/C(=C2\C(=O)Nc3cc(C#CC(=O)NCCO)ccc32)c2ccccc2)cc1` [Example 166]: the remaining activity at 1 µM worked out at 1.93%. For `CN(C)Cc1ccc(N/C(=C2\C(=O)Nc3cc(C#CC(=O)NCC(F)F)ccc32)c2ccccc2)cc1` [Example 167] the value was 2.96%. The same measure for `O=C(C#Cc1ccc2c(c1)NC(=O)/C2=C(\Nc1ccc(CN2CCCC2)cc1)c1ccccc1)NCC(F)F` [Example 168]: 1.85%; for `O=C(C#Cc1ccc2c(c1)NC(=O)/C2=C(\Nc1ccc(CN2CCCC2)cc1)c1ccccc1)NCCF` [Example 169]: 1.71%.
